# Reference: patent publication US20250339391A1, “METHODS FOR EFFECTIVE MANAGEMENT OF PAIN” (South Rampart Pharma, Inc., priority 2024, published 2025)
# Assays:
# Male rats = experiment: Rat micronucleus in vivo study
# Protocol: The induction of numerical aberrations was within the 95% control limit of the historical negative control data. […] Approximately 48 h after the second dose administration, peripheral blood was collected for flow cytometric analysis of micronuclei. There was no significant increase in the incidence of micronuclei in the test article-dosed animals compared to the concurrent vehicle control. The vehicle control value was compatible with the historical range of % micronucleated reticulocytes (MnRETs). There was a statistically significant increase in MnRETs in the positive control compared to the concurrent vehicle control. […] The vehicle control was 10% Labrasol, 10% DMSO, and 80% PEG400. The positive control for the Comet assay, ethyl methanesulfonate (EMS), was orally administered at 200 mg/kg/dose for two consecutive days at a dose volume of 10 mL/kg/dose. […] Animals were euthanized 3-4 h after the last dose administration. The liver and glandular stomach were collected and processed for comet evaluation.
# male Beagle dogs = settings: dog, in vivo
# Protocol: 6) A Two-day Oral Dose Toxicity and Pharmacokinetic Study of SRP-001 in Beagle Dogs Non-GLP) SRP-001 was supplied by Olon Ricerca Bioscience as an off-white powder and then prepared as dosing suspensions for oral administration via gavage (Calvert Labs/Altasciences, Scott Township, PA USA). Six experimentally non-naïve male Beagle dogs (3/dose), at least 7 months old and weighing 7.2 to 10.2 kg prior to treatment initiation, were administered 100 or 900 mg/kg/d SRP-001. Animals were dosed three times daily (3-5 h between doses) for 2 d. Mortality/morbidity was performed twice daily. On the day of dosing, animals were observed prior to each dose administration and approximately 1-3 h after each dose. Animals were also observed once on day 3. Body weights were recorded for all animals prior to the first dose administration on days 1 and 3, and food consumption was recorded daily. Blood for bioanalytical evaluation was collected at selected timepoints on day 1. Following the completion of the study, surviving animals were not euthanized and were returned to the Calvert colony.
# Beagle dogs [1] = experiment: 7-day repeat-dose oral toxicity study in Beagle dogs, Phase II (non-GLP); assay type: in vivo, dog
# Protocol: 7) A Dose-Range-Finding and 7-day Repeat-Dose Oral Toxicity Study of SRP-001 in Beagle dogs (Non-GLP) In Phase II of this study, 0, 30, 100, or 300 mg/kg/d of SRP-001 was administered once daily for seven consecutive days to 1 Beagle dog/sex/dose (Calvert Labs/Altasciences, Scott Township, PA USA). Mortality/morbidity was observed twice daily and once prior to scheduled sacrifice. Clinical observations were evaluated prior to each dose administration and at approximately 1-3 h post-dose and once prior to scheduled sacrifice on day 8. Body weights were recorded on days 1 and 7, and a fasted body weight was recorded prior to scheduled sacrifice on day 8. Food consumption was recorded daily. Blood for evaluation of hematology, coagulation, and clinical chemistry parameters and urine for urinalysis was collected from all animals prior to treatment initiation and from all Phase II animals prior to scheduled sacrifice on day 8. Blood for toxicokinetic evaluation was collected at selected time points on days 1 and 7. Selected tissues were harvested and weighed at necropsy. No microscopic evaluations were performed. […] The clinical observations corroborated with findings of red discoloration in the duodenum of the control group female, the jejunum of the low-dose male, and the colon of both high-dose dogs.
# Beagle dogs [2] = settings: dog, in vivo
# Protocol: 8) A 28-day Oral Toxicity Study of SRP-001 in Beagle Dogs with a 14-day Recovery (GLP study) SRP-001 was supplied by Olon Ricerca Bioscience as an off-white powder. The test article was then prepared into dosing suspensions for oral administration via gavage (Calvert Labs/Altasciences, Scott Township, PA USA). Thirty-two experimentally naïve Beagle dogs (16 males and 16 females), 8-9 months old and weighing 6.7-10.5 kg for males and females at the outset of the study, were administered 0, 165, 330, or 495 mg/kg/d. Animals were dosed three times daily (3-5 h between doses) for 28 consecutive days. Prior to this dosing schedule, the dosing was initiated with once daily dosing at 0, 100, 300, or 900 mg/kg at a dose volume of 5 to 10 ml/kg. Due to adverse clinical signs noted following dosing of all groups at a dose volume of 10 ml/kg, dosing of the animals was suspended on day 2 for males and day 1 for females. The study was restarted with T.I.D. dosing in lower dose volume to reduce vehicle-related toxicity.
# In-life data from the initial start of the study using once daily dosing were not included in the report but are maintained in the study file. Following the restart of the study, the study was conducted as follows. Mortality/morbidity was performed twice daily and once prior to the scheduled sacrifice. Animals were observed prior to each dose administration and 1-3 h after each dose administration. Animals were also observed once daily on non-dosing days and once prior to scheduled sacrifice. Body weights were recorded prior to randomization/selection, prior to the first dose administration on day 1 and weekly thereafter. Food consumption was determined daily. Ophthalmology examinations and electrocardiograms were performed before treatment initiation and during the last week of dosing. Blood for evaluation of hematology, coagulation and clinical chemistry and urine for urinalysis was collected prior to treatment initiation and on days 29 and 43. Blood for toxicokinetic evaluation was collected at selected timepoints on days 1 and 28. All surviving animals were sacrificed on day 29 or day 43. Selected tissues were harvested at necropsy, selected organs weighed, and selected tissues evaluated microscopically.
smiles,measurement,setting,value
"CCN(CC)C(=O)c1ccccc1S(=O)(=O)NCC(=O)Nc1ccc(O)cc1 [SRP-001, N,N-diethyl-2-[[2-(4-hydroxyanilino)-2-oxo-ethyl]sulfamoyl]benzamide]",incidence of micronuclei / clastogenicity,"Male rats; 500, 1,000 and 2,000 mg/kg/d oral, two days",negative (non-clastogenic)
same,% RETs,Male rats; treatment groups,Statistically significant decreases in % RETs
same,emesis,male Beagle dogs,Nearly all animals had emesis
same,amplification in peak plasma concentration,"male Beagle dogs; male, Beagle",3-4 fold
same,tolerated dose,"male Beagle dogs; male, Beagle, 2 d",900 mg/kg/day
same,clinical signs,"Beagle dogs [1]; 30, 100, 300 mg/kg/d",loose or soft feces and emesis
same,tolerated dose,"Beagle dogs [1]; both, Beagle, dog, in vivo, 7 d",300 mg/kg
same,AUC and Cmax levels,"Beagle dogs [1]; dog, in vivo","increased in a dose-dependent manner, with day 1 levels higher than those from day 7"
same,reversibility after 14-d recovery,"Beagle dogs [2]; both, Beagle, 14 d",nearly all SRP-001-related changes observed on day 29 were reversible
same,no-adverse-effect level,"Beagle dogs [2]; both, Beagle, 28 d",330 mg/kg/day
same,doses without treatment-related adverse effects,"Beagle dogs [2]; both, Beagle, po, 28 d",up to 330 mg/kg/day
same,hematology finding,Beagle dogs [2],regenerative anemia
